The record followed here is US6924307B2, “Aminobutyric acid derivatives and pharmaceutical composition containing the same as active ingredient” (Ono Pharmaceutical Co., Ltd., priority 1999, dated 2005).

What all share (assay type): biochemical
One test addresses T1, gelatinase A (Homo sapiens, UniProt P08253).
T1 construct: endogenous in cells; host or cells: human normal skin dermal fibroblasts (HNDF)
T1 sequence (P08253 110-660): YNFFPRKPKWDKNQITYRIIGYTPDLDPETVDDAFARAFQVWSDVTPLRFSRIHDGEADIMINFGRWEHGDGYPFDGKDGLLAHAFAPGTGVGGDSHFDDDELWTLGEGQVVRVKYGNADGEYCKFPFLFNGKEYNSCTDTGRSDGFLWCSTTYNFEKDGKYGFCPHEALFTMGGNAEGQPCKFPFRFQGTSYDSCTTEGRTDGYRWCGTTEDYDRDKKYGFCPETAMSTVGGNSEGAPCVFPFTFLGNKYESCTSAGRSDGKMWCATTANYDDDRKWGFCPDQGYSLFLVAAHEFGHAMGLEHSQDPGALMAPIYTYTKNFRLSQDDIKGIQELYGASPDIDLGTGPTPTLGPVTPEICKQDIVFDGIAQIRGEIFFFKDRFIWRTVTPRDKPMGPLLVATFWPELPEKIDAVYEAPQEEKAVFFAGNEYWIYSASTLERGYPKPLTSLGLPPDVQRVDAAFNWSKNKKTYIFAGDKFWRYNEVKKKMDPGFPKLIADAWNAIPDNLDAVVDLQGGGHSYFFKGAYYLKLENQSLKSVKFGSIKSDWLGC
Description: Inhibitory activity against gelatinase A (fluorogenic synthetic substrate). To be noted: gelatinase A from progelatinase A purified from human normal skin dermal fibroblasts (HNDF), APMA-activated; 37° C. How it is done:
(1) Inhibitory Activity Against Gelatinase A
The progelatinase A (5 μl; in assay buffer (40 μl)) was purified from human normal skin dermal fibroblasts (HNDF). It was activated by adding thereto 10 mM of p-aminophenylmercuric acetate (APMA) (5 μl) and preincubating for 1 hour at 37° C.
A mixture of the synthetic substrate (MOCAc-Pro-Leu-Gly-A2pr(Dnp)-Ala-Arg-NH2) (130 μl; a final concentration 13.5 μM) and a solution (20 μl) with or without various concentrations of the test compound was preincubated for 5 minutes at 37° C.
The solution of activated gelatinase A (50 μl/well) was mixed with the mixture and the mixture was incubated for 15 minutes at 37° C. The enzyme reaction was started. The enzyme activity was represented by increasing value of fluorescent intensity [Ex=325 nm (Ex)/393 nm (Em)] per 1 minute. Inhibitory activity was represented by inhibitory percentage (%) per enzyme activity without the test compound.

Another test addresses T2, human stromelysin (Homo sapiens, UniProt P08254).
T2 construct: purchased Yagai
Put plainly: Inhibitory activity against stromelysin (synthetic substrate NFF-3, fluorescence). As to conditions: APMA-activated, pH 7.5, 37° C. How it is done:
(3) Inhibitory Activity Against Stromelysin Method:
The mixture of human stromelysin (Yagai; 9 volume) and 10 mM p-aminophenylmercury acetate (1 volume) was activated for 20 hours at 37° C. A solution of the test compound in dimethylsulfoxide (10 μl) and 0.5 mM solution (10 μl) of 10 mM solution of the synthetic substrate NFF-3 (Mca-Arg-Pro-Lys-Pro-Val-Glu-Nva-Trp-Arg-Lys(DNP)-NH2., Nva: norvaline, Peptide Laboratory) in dimethylsulfoxide diluted by water were added to assay buffer (50 mM tris-HCl, 10 mM CaCl2, 0.05% Brij35, 0.02% NaN3 (pH 7.5)) (150 μl). Furthermore, assay buffer (30 μl) was added to the mixture. The mixture was incubated for 10 minutes at 37° C. The reaction was started by addition of a solution of the above activated stromelysin solution (50 μl). The enzyme activity was represented by increasing value of fluorescent intensity [Ex=325 nm (Ex)/393 nm (Em)] per 1 minute. Inhibitory activity was represented by inhibitory percentage (%) per enzyme activity without the test compound.

In a further test the target is T3, collagenase (Homo sapiens, UniProt P03956).
T3 construct: endogenous in cells; host or cells: human normal skin dermal fibroblasts (HNDF)
T3 sequence (P03956 100-469): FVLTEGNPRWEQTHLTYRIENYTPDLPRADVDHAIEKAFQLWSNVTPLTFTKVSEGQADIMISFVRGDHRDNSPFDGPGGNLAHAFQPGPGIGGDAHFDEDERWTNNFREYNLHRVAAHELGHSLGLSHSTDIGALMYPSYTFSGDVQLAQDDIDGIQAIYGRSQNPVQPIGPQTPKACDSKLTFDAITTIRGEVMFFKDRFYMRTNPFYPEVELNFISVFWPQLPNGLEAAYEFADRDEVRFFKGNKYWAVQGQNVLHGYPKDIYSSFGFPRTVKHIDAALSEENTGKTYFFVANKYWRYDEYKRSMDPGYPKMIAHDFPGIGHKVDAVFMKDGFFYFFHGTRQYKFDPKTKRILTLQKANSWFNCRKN
Description: Inhibitory activity against collagenase (thiopeptolide synthetic substrate, absorption at 324 nm). To be noted: collagenase from procollagenase purified from human normal skin dermal fibroblasts (HNDF), trypsin-activated; 26° C. How it is done: (2) Inhibitory Activity Against Collagenase Method:
The procollagenase (5 μl; in assay buffer (105 μl)) was purified from human normal skin dermal fibroblasts (HNDF). It was activated by adding thereto 1 mg/ml Trypsin (45 μl) and preincubating for 1 minute at 37° C. Trypsin was inactivated by addition of 5 mg/ml soybean trypsin inhibitor (SBTI; 50 μl).
A mixture of the synthetic substrate (Ac-Pro-Leu-Gly-[2-mercapto-4-methyl-pentanoyl]-Leu-Gly-OEt) (105 μl; a final concentration 1.33 mM) and a solution (20 μl) with or without various concentrations of the test compound was preincubated for 5 minutes at 26° C.
The solution of activated enzyme (75 μl /tube, 50 μl) was mixed with the mixture and the mixture was incubated for 10 minutes at 26° C.
Absorption at 324 nm was measured 40 points in the course of 10 minutes. Vmax value was determined as measured value in 30 points therein.

T2 sequence (P08254 100-477): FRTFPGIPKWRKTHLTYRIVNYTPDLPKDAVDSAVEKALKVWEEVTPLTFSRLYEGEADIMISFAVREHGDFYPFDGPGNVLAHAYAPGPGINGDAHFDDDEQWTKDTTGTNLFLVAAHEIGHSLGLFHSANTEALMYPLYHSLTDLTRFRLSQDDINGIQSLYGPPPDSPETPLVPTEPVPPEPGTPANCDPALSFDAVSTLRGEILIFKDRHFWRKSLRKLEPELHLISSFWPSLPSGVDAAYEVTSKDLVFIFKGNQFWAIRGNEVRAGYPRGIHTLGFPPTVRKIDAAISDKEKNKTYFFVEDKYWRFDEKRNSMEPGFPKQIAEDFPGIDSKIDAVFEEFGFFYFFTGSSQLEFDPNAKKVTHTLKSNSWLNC

Consider `CCOCOC[C@H](C[C@H](COC)C(=O)NO)NC(=O)c1ccc(Oc2ccccc2)cc1` [8(6), N-hydroxy-5-ethoxymethoxy-2(R)-methoxymethyl-4(S)-[N-(4-phenoxyphenylcarbonyl)amino]pentanamide], for which the IC50 at gelatinase A worked out at 1.7 nM; on human stromelysin, 29 nM. `CCOCOC[C@H](C[C@H](COC)C(=O)NO)NC(=O)c1ccc(-c2ccco2)cc1` [8(7), N-hydroxy-5-ethoxymethoxy-2(R)-methoxymethyl-4(S)-[N-(4-(2-furyl)phenylcarbonyl)amino]pentanamide]: 40 nM corresponded to half-maximal inhibition against human stromelysin (IC50). Take `CN(C(=O)c1ccc(Br)cc1)[C@H](CO)C[C@H](CCCc1ccccc1)C(=O)NO` [16(2), N-hydroxy-2(S)-(3-phenylpropyl)-5-hydroxy-4(S)-[N-methyl-N-(4-bromophenylcarbonyl)amino]pentanamide]: the 50% inhibitory concentration (IC50) against gelatinase A turned out to be 4.2 nM.

In the case of `C#CCOC[C@@H](C[C@@H](COCOCC)NC(=O)c1ccc(Cl)cc1)C(=O)NO` [20(3), N-hydroxy-5-ethoxymethoxy-2(R)-(2-propynyloxymethyl)-4(S)-[N-(4-chlorophenylcarbonyl)amino]pentanamide], on collagenase, the IC50 was determined as 6.8 nM. This lies in the single-digit nanomolar range.

In the case of `C#CC[C@@H](C[C@@H](CO)N(C)C(=O)c1ccc(Br)cc1)C(=O)NO` [21(2), N-hydroxy-2(S)-(2-propynyl)-5-hydroxy-4(S)-[N-methyl-N-(4-bromophenylcarbonyl)amino]pentanamide], the IC50 against collagenase is 7.6 nM.

`CCOCOC[C@H](C[C@H](COC)C(=O)NO)NC(=O)c1ccc(C#N)cc1` [compound 8] showed an IC50 on collagenase of 14 nM.
